Here are results for 10 molecules from patent publication US6201006A, “Aromatic amidine derivatives useful as selective thrombin inhibitors” (C & C Research Laboratories, priority 1996, dated 2001).

The target of one test is T1, human thrombin (Homo sapiens, UniProt P00734).
T1 construct: purchased Sigma T-6759
The experiment in a line: Inhibitory activity for thrombin (chromogenic substrate hydrolysis, 405 nm). Type of test: biochemical. Particulars: for IC50: human thrombin, 20 min, pH 8.0, N-benzoyl-Phe-Val-Arg-p-nitroanilide; for Selectivity (trypsin/thrombin): IC50 for trypsin divided by IC50 for thrombin. An outline of the steps:
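Thrombin: human enzyme (5 units/ml stock, 0.1% BSA) acted for 20 min on N-benzoyl-Phe-Val-Arg-p-nitroanilide in 125 mM NaCl, 50 mM Tris-HCl pH 8.0, with compounds dissolved in 50% methanol. Hydrolysis was read at 405 nm. Selectivity index was trypsin IC50 divided by thrombin IC50.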

In test [1] the test system is thrombin time (TT) in rat plasma. The experiment in a line: Thrombin time (TT) in rat plasma after oral administration. It counts as in vivo, SD male rats. Particulars: TT after / TT before administration. How it is done: SD male rats weighing 220±20 g which had fasted overnight were used as experimental animals. Blood taken from the hearts of the experimental animals just before administration of the test compound and at 30, 60, 120 and 240 minutes after oral administration of the test compound was mixed with 0.108M sodium citrate in the ratio of 9:1. The mixtures thereby obtained were centrifuged at 15,000 rpm for 5 minutes at 4° C. to separate the plasma, which was stored at -20° C. until the TT was measured by means of the method described below.
200 μl of Owren's buffer was added to 50 μl of the plasma and 100 μl of the diluted plasma thereby obtained was injected into the vial of a coagulometer and then incubated for 2 minutes at 37° C. To each vial was added 100 μl of thrombin at a concentration of 20 U/ml, which had prewarmed at 37° C., to measure the time (TT) until clotting occurred. The ratio of the TT in rat plasma after administration of the test compound to the TT in rat plasma before administration of the test compound was calculated.

In another test the test system is trypsin. The experiment in a line: Inhibitory activity for trypsin. Type of test: biochemical.

A word on the IC50: it is the concentration at which inhibition is half-maximal. Lower therefore signals greater potency in that assay. Regarding `CCn1c(CC[C@@H]2CCCN2C(=O)[C@H]2CCCN2C(=O)[C@@H](N)CC(=O)O)cc2ccc(C(=N)N)cc21` [Compound 149, 4-[(R)-2-[[(S)-2-[2-(6-amidino-1-ethylindol-2-yl)ethyl]pyrrolidinyl]carbonyl]pyrrolidinyl]-(S)-3-amino-4-oxobutanoic acid], inhibition against human thrombin was half-maximal at 10.4 nM (IC50). The “Plasma TT ratio after administration to rat” value (“Plasma TT ratio” for short) in test [1] (50 mg/kg oral) is reported as 9.24.

Consider `CCOC(=O)CN1CCC[C@@H]1C(=O)N1CCC[C@H]1CCc1cc2ccc(C(=N)N)cc2n1CC` [Compound 86, ethyl 2-[(R)-2-[[(S)-2-[2-(6-amidino-1-ethylindol-2-yl)ethyl]pyrrolidinyl]carbonyl]pyrrolidinyl]acetate], for which the “Selectivity (trypsin/thrombin)” value on human thrombin was 25.0. The midpoint of inhibition on human thrombin, the IC50, lay at 27 nM. Also, the “Plasma TT ratio” value came to 1.49 in test [1] (30 mg/kg oral), 4.51 in test [1] (50 mg/kg oral) and 5.19 in test [1] (100 mg/kg oral).

Regarding `CCn1c(CC[C@@H]2CCCN2C(=O)[C@H]2CCCN2C(C)=O)cc2ccc(C(=N)N)cc21` [Compound 171, 1-ethyl-2-[2-[(S)-1-[((R)-1-acetyl-pyrrolidin-2-yl)carbonyl]pyrrolidin-2-yl]ethyl]indole-6-carboxamidine], in the test with trypsin, the midpoint of inhibition, the IC50, lay at 373 nM. For the same molecule, at human thrombin, the “Selectivity (trypsin/thrombin)” value came to 35.1 and the IC50 was found to be 10.6 nM. For the same molecule, the “Plasma TT ratio” value in test [1] (100 mg/kg oral) is listed as 4.23.

As for `CCn1c(CC[C@@H]2CCCN2C(=O)[C@H]2CCCN2C(=O)C[C@H](N)C(=O)O)cc2ccc(C(=N)N)cc21` [Compound 161, 4-[(R)-2-[[(S)-2-[2-(6-amidino-1-ethylindol-2-yl)ethyl]pyrrolidinyl]carbonyl]pyrrolidinyl]-(S)-2-amino-4-oxobutanoic acid], on human thrombin, the “Selectivity (trypsin/thrombin)” value is listed as 48.9 and 5.21 nM corresponded to half-maximal inhibition (IC50). For the same molecule, the “Plasma TT ratio” value in test [1] (50 mg/kg oral) was found to be 7.62.

Take `CCn1c(CC[C@@H]2CCCN2C(=O)[C@H]2CCCN2C(=O)C[C@H](N)C(N)=O)cc2ccc(C(=N)N)cc21` [Compound 160, 1-ethyl-2-[2-[(S)-1-[[(R)-1-((S)-3-amino-3-carbamoylpropanoyl)pyrrolidin-2-yl]carbonyl]pyrrolidin-2-yl]ethyl]indole-6-carboxamidine]: the concentration for half-maximal inhibition (IC50) turned out to be 382 nM with trypsin and 15.3 nM against human thrombin. Further, on human thrombin, the “Selectivity (trypsin/thrombin)” value is 25.0. Also, the “Plasma TT ratio” value in test [1] (50 mg/kg oral) came to 2.30.

Turning to `CCn1c(CC[C@@H]2CCCN2C(=O)[C@H]2CCCN2CCCC(=O)O)cc2ccc(C(=N)N)cc21` [Compound 127, 4-[(R)-2-[[(S)-2-[2-(6-amidino-1-ethylindol-2-yl)ethyl]pyrrolidinyl]carbonyl]pyrrolidinyl]butanoic acid], the IC50 against human thrombin was found to be 21.7 nM. In addition, in test [1] (50 mg/kg oral), the “Plasma TT ratio” value was determined as 8.00.

In the case of `CCn1c(CCC2CCCN2C(=O)C2CCCN2C(CCO)C(=O)O)cc2ccc(C(=N)N)cc21` [Compound 118, 2-[(R)-2-[[(S)-2-[2-(6-amidino-1-ethylindol-2-yl)ethyl]pyrrolidinyl]carbonyl]pyrrolidinyl]-4-hydroxy-butanoic acid], at human thrombin, the “Selectivity (trypsin/thrombin)” value was 14.5 and the IC50 is 12.3 nM. In test [1] (50 mg/kg oral), the “Plasma TT ratio” value is 8.80.

On to `CCn1c(CC[C@@H]2CCCN2C(=O)[C@H]2CCCN2C(=O)CCN)cc2ccc(C(=N)N)cc21` [Compound 155, 1-ethyl-2-[2-[(S)-1-[[(R)-1-(3-aminopropanoyl)pyrrolidin-2-yl]carbonyl]pyrrolidin-2-yl]ethyl]indole-6-carboxamidine], for which the IC50 in the test on trypsin stood at 287 nM; against human thrombin, 11.6 nM. Moreover, at human thrombin, the “Selectivity (trypsin/thrombin)” value came to 24.7. Besides, the “Plasma TT ratio” value is on record as 3.93 in test [1] (50 mg/kg oral) and 7.36 in test [1] (100 mg/kg oral).

For the molecule `CCOC(=O)CCCN1CCC[C@@H]1C(=O)N1CCC[C@H]1CCc1cc2ccc(C(=N)N)cc2n1CC` [Compound 126, ethyl 4-[(R)-2-[[(S)-2-[2-(6-amidino-1-ethylindol-2-yl)ethyl]pyrrolidinyl]carbonyl]pyrrolidinyl]butanoate], the IC50 at human thrombin was found to be 40.5 nM. Further, the “Plasma TT ratio” value in test [1] (50 mg/kg oral) came out at 5.40.

Regarding `CCOC(=O)[C@@H](N)CC(=O)N1CCC[C@@H]1C(=O)N1CCC[C@H]1CCc1cc2ccc(C(=N)N)cc2n1CC` [Compound 159, ethyl 4-[(R)-2-[[(S)-2-[2-(6-amidino-1-ethylindol-2-yl)-ethyl]pyrrolidinyl]carbonyl]pyrrolidinyl]-(S)-2-amino-4-oxobutanoate], on human thrombin, the “Selectivity (trypsin/thrombin)” value turned out to be 20.7 and inhibition was half-maximal at 19.3 nM (IC50). Also, in test [1] (50 mg/kg oral), the “Plasma TT ratio” value is on record as 6.23.
